The source of these data is patent publication US20190125753A1, “COMPOUNDS AND METHODS FOR INCREASING HEMATOPOIESIS” (University of Southern California, priority 2016, published 2019).

The subject of one assay is Human survivin promoter. Briefly: Survivin/luciferase reporter (Survivin-Hek-293). Type of assay: cell-based. The protocol: (§1) Hek293 cells were stably transfected with plasmid that contains multiple TCF/LEF fragments in front of Luciferase gene. Wnt/β-catenin activity was determined from luciferase expression levels. […] Briefly, stably transfected Hek-293, STFI.1 (Wnt/β-catenin-driven luciferase) and Survivin-Hek-293 (1 Kb Human survivin promoter-driven luciferase) cells were maintained in DMEM, 10% FBS, Pen/Strep with 400 μg/mL G418 or 2 μg/mL puromycin, respectively. To check the activity of ICG-001, YH249, and YH250, the cells were split into white-opaque 96-well plates at 10,000 cells per well and allowed to attach overnight. For SuperTOPLASH, the inhibitors were added to the cells and pre-incubated for 1 hour prior to stimulation with 10 mM Li Cl for 24 hours. Luciferase activity was read using BrightGlo (Promnega) luciferase substrate. For survivin/luc, the inhibitors were added to the cells and incubated for 24 hours prior to readout. To calculate IC5o values, the resulting curve was fitted to a four-parameter logistic model (4PL) using GraphPad Prism 5 software.
B. Survivin Expression Level: The Secondary Screen.
(§2) An endogenous human survivin 1 kb promoter was inserted before a luciferase gene. […] R1 and R2 were diversified in this study. Percent inhibition of luciferase activity was calculated according to the following equations; % inhibition of STF 1.1 reporter activity=(I−RLU(10 mM LiCl) treated/RLU(10 omM LiCl) vehicle×control)100, % inhibition of Survivin reporter activity=(1−RLUtreated/RLU vehicle control)×100. Error bars indicate the mean±SE of 3 separate experiments. Selectivity (FIG. 2H) was calculated by IC50 value for Survivin-Hek-293/IC50 value for STF 1.1.
Background: Reporter assays use an easily measured gene product as a stand-in for the process of interest.

The subject of the next assay is Wnt/β-catenin pathway. Briefly: SuperTOPFLASH (STF1.1 Hek-293) Wnt/β-catenin-driven luciferase reporter. In kind it is cell-based. The protocol: A. Wnt/β-Catenin Activity: The Initial SuperTOPFLASH Screen.
as §1, §2

For assay [1], the target named is T1, CBP/γ-catenin interaction (Mus musculus, UniProt P45481).
T1 construct: bone marrow Sca-1posit cells were isolated with Anti-Sca-1 microbeads; from tissue; host or cells: bone marrow Sca-1 positive cells of female C57/Black mice dosed in vivo
The experiment in a line: Co-IP of bone marrow Sca-1posit cells from treated mice (anti-CBP). The settings on record: YH250 2 mg/kg subcutaneously, 24 hrs. In kind it is in vivo. The protocol:
(§3) YH250 was used in this study. Female C57/Black mice were administrated with either DMSO (solvent control) or YH250 (2 mg/kg) subcutaneously. 24 hrs later, bone marrow Sca-1posit cells were isolated with Anti-Sca-1 microbeads (Miltenyi Biotec, Cat#130-092-529) for co-immunoprecipitation (FIG. 4A). Cells were then lysed and incubated with either anti-CBP (A22) or anti-p300 (C20) antibodies. Then, the immunoprecipitation complex were electrophoresed and detected with antibodies to either β-catenin or γ-catenin. […] This confirms that YH250 directly disrupts the p300/catenin interaction thereby enhancing the CBP/catenin interaction in HSPCs.

The target of assay [2] is T2, p300/γ-catenin interaction (Mus musculus, UniProt B2RWS6).
T2 construct: bone marrow Sca-1posit cells were isolated with Anti-Sca-1 microbeads; from tissue; host or cells: bone marrow Sca-1 positive cells of female C57/Black mice dosed in vivo
Briefly: Co-IP of bone marrow Sca-1posit cells from treated mice (anti-p300). Type of assay: in vivo. The settings on record: YH250 2 mg/kg subcutaneously, 24 hrs. The protocol: as §3

For assay [3], the system named is R1 mESCs. The settings on record: Wnt dependent manner; cited from earlier work.
The test system of assay [4] is H9 human embryonic stem cells. Briefly: Maintenance of human ES cell pluripotency, 5 days. In kind it is cell-based. The settings on record: 25 ng/ml Wnt3a; 500 nM YH249 or 200 nM YH250, 5 days, without FGF and TGF. As to the method:
(§4) We also determined that IQ-1 indirectly, via binding to the PR72/130 subunit of PP2A, inhibited the p300/β-catenin interaction (Id). Therefore, we anticipated that YH249/250 should also maintain mESC pluripotency in a Wnt dependent manner. To test his, R1 mESCs were cultured under feeder free conditions in the presence or absence of YH249/250 for 5 days. […] Pluripotency markers, Oct4, Nanog, Sox2, SSEA-1 and ALP, were all expressed in the cells treated with Wnt3a and YH250 (FIG. 28b). Moreover, Wnt3a could be replaced with the selective GSK-3 inhibitor CHIR99021, which activates the Wnt signaling pathway (FIG. 28a, lower panel). […] In the event, similarly to ID-8, the combination of Wnt3a and YH249/250 provided morphologically undifferentiated colonies of H9 human embryonic stem cells (hESCs) without FGF and TGF (FIG. 28c). hPSC markers were detected by ALP staining and immunofluorescence (FIG. 28d). In addition to H9 cells, two other hESC lines and a human induced pluripotent stem (iPS) cell line could be also maintained undifferentiated morphology utilizing the same conditions (not shown).
Specifically, FIG. 28A-28D, show maintenance of ESC's pluripotency by YH249 and YH250. […] 28A, Typical colony morphologies of RI mouse ES cells cultured 5 days in [upper panel] […]

The test system of the next assay is mouse bone marrow cells. Briefly: Colony-forming cell (CFC) assay after 4 h in vitro treatment. In kind it is cell-based. The protocol:
Brief (less than 24 hours) treatment of HSC with YH250 or DMSO was conducted before the CFC or CFU-S12 assay. Mouse bone marrow cells were treated with DMSO (solvent control) or YH250 for 4 hours in serum free HSC expansion medium before the cells were recovered for a colony forming assay. 7-8 Days after cell plating in methylcellulose medium (Stemcell Technologies, Methocult GF M3434, Cat#3434), colonies were scored, and the cells from each plate were recovered and counted.
In fact, they also show similar biological functions with respect to HSPC.

In assay [5] the test system is R1 mESCs. Briefly: Maintenance of mouse ES cell pluripotency, feeder free, 5 days. In kind it is cell-based. The settings on record: with 50 ng/ml Wnt3a or 3 μM CHIR99021; 500 nM YH249 or 200 nM YH250, 5 days. The protocol: as §4
Specifically, FIG. 28A-28D, show maintenance of ESC's pluripotency by YH249 and YH250. […] 28A, Typical colony morphologies of RI mouse ES cells cultured 5 days in [upper panel] 3 μM CHIR99021 and 1 μM PD0325901 (2i) medium, basal medium (2i medium without CHIR99021 and PD0325901), basal medium supplemented with 50 ng/ml Wnt3a alone, [middle panel] combination of 50 ng/ml Wnt3a and 2 μM IQ-1, 500 nM YH249 or 200 nM YH250, [lower panel] 3 μM of CHIR99021 alone, and combination of 3 μM CHIR99021 and 500 nM YH249 or 200 nM YH250. […] The blue signal (Wnt3a panels) represents DAPI nuclear staining. Bars indicate […]. […] The blue signal (Wnt3a panels) represents DAP1 nuclear staining. Scale bars indicate 100 am.

The target of another assay is T3, p300 (Mus musculus, UniProt B2RWS6).
T3 construct: endogenous in cells; host or cells: lysates of mouse C2C12 myoblasts
The experiment in a line: Bio-249 affinity pull-down from C2Cl2 lysates, p300 immunoblot. Type of assay: binding. The protocol:
YH249 and YH250 were selected from the compounds described herein for further testing. Co-immunoprecipitation (CO-IP) was performed with mouse myoblast C2Cl2 cells. Cells were treated with DMSO (control), or YH249, or YH250 for 24 hours. Cell lyses were pulled down with anti-p300 or anti-CBP antibodies, run on gel and probed with anti-β-catenin antibody. […] A biotinylated version of YH249 (Bio-249) was prepared via the propargyl amide variant. Using a biotin with a linker and a terminal azide residue, we were able to couple the biotin to the YH249 core via a 3+2 cyclization reaction to provide Bio-249. Bio-249 was incubated with lysates from C2Cl2 myoblasts, either in the presence or absence of competitor YH249 for 4 h at 4° C. and then bound to streptavidin agarose beads. After extensive washing the bound proteins were eluted and run out on an […].
Background: A western blot detects proteins with antibodies after separation by electrophoresis.

A further assay deals with bone marrow cells. Briefly: Brief (4 h) incubation of bone marrow cells, 14 days culture, FACS. Type of assay: cell-based, mouse. Conditions: 0.5 μM 4 hrs, 14 days culture. As to the method:
Bone marrow cells were treated with DMSO or YH250 (0.5 μM) for 4 hours, then the compound was removed and the cells cultured in QBSF-58 medium for 14 days with 10 ng/ml of SCF, TPO, Flt3 ligand, and IL-6. At the end of culture, cells were recovered and analyzed for LSK cells with FACS.
In a further study, female CD45.1 mice bone marrow cells were incubated with DMSO, or YH249 (0.5 μM) or YH250 (0.5 μM) for 4 hrs in QBSF-58 media, then 2×10^4 cells were plated in QBSF-58 medium containing SCF, TPO, Flt3 and IL-6 (10 ng/ml for each) for 14 days. Cells were then recovered from plate for FACS analysis. […] Correspondingly, there are higher LSK cells (52%, 60% and 70% respectively for DMSO, YH249 and YH250). From every 10,000 analyzed cells, LSKCD34negt cell numbers are 437, 663 and 2051 for DMSO, YH249 and YH250 treated cells, respectively.

[6] abbreviates: 4 hours incubation then CFC assay.

T3 sequence (B2RWS6 whole entry): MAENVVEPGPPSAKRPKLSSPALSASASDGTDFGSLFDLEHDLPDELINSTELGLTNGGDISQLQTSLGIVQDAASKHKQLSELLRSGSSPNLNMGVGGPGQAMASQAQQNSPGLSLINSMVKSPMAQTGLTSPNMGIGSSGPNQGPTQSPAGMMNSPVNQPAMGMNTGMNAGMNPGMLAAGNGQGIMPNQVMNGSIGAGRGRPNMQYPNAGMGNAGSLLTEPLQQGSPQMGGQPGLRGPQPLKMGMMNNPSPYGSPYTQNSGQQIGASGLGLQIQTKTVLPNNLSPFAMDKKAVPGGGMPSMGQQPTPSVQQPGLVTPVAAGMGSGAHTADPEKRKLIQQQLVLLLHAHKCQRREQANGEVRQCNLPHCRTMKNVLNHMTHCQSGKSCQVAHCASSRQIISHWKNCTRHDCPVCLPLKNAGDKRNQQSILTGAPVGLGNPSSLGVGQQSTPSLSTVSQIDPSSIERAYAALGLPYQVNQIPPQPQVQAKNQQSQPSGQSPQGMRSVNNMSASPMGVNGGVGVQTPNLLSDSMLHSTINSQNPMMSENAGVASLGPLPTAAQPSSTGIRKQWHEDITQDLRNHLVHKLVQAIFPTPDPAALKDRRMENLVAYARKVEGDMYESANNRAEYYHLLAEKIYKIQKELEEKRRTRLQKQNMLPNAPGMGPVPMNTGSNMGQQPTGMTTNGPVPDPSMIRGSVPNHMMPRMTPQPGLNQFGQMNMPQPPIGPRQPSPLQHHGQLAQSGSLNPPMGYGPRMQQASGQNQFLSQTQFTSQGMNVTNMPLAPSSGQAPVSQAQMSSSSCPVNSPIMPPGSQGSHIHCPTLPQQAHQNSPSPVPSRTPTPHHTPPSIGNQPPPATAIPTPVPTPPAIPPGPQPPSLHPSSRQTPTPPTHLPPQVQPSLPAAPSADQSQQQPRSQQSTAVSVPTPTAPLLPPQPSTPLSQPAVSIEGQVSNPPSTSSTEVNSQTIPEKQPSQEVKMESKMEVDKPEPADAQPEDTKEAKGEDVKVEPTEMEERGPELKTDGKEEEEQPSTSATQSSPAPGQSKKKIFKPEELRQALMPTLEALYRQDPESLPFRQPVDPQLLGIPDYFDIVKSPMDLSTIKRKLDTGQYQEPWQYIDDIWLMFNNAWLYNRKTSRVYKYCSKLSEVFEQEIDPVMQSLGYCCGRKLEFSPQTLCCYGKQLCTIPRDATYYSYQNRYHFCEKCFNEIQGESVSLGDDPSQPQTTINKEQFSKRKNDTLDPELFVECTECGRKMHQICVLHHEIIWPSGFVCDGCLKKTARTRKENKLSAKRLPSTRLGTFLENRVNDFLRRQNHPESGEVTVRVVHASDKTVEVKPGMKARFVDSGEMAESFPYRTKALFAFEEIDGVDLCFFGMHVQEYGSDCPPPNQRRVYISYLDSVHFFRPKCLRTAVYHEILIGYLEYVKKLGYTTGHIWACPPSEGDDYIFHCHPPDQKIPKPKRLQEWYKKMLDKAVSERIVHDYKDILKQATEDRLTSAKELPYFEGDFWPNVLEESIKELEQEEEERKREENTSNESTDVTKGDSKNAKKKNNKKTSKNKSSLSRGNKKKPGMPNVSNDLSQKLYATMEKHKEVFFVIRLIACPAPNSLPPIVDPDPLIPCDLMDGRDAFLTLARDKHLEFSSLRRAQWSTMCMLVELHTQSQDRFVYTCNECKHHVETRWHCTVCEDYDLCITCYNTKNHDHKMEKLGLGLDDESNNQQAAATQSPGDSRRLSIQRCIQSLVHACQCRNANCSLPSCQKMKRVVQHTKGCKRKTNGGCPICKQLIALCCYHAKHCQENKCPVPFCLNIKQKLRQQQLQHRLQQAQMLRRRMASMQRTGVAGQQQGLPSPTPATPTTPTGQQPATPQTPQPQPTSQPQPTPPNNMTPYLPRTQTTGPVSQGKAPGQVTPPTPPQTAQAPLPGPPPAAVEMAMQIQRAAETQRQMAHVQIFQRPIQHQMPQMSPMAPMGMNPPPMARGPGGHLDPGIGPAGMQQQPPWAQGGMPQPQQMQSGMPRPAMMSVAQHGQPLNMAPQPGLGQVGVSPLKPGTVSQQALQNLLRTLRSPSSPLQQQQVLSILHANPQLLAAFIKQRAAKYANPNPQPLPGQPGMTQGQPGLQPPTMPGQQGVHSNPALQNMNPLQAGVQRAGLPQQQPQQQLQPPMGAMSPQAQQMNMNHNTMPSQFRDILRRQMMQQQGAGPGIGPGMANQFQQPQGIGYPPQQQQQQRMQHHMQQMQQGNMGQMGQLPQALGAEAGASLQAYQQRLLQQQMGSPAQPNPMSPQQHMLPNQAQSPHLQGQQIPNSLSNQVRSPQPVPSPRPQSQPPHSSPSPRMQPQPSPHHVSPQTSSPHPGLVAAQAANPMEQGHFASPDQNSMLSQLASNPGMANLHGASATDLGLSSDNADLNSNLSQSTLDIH
T1 sequence (P45481 2-2441 limits assumed): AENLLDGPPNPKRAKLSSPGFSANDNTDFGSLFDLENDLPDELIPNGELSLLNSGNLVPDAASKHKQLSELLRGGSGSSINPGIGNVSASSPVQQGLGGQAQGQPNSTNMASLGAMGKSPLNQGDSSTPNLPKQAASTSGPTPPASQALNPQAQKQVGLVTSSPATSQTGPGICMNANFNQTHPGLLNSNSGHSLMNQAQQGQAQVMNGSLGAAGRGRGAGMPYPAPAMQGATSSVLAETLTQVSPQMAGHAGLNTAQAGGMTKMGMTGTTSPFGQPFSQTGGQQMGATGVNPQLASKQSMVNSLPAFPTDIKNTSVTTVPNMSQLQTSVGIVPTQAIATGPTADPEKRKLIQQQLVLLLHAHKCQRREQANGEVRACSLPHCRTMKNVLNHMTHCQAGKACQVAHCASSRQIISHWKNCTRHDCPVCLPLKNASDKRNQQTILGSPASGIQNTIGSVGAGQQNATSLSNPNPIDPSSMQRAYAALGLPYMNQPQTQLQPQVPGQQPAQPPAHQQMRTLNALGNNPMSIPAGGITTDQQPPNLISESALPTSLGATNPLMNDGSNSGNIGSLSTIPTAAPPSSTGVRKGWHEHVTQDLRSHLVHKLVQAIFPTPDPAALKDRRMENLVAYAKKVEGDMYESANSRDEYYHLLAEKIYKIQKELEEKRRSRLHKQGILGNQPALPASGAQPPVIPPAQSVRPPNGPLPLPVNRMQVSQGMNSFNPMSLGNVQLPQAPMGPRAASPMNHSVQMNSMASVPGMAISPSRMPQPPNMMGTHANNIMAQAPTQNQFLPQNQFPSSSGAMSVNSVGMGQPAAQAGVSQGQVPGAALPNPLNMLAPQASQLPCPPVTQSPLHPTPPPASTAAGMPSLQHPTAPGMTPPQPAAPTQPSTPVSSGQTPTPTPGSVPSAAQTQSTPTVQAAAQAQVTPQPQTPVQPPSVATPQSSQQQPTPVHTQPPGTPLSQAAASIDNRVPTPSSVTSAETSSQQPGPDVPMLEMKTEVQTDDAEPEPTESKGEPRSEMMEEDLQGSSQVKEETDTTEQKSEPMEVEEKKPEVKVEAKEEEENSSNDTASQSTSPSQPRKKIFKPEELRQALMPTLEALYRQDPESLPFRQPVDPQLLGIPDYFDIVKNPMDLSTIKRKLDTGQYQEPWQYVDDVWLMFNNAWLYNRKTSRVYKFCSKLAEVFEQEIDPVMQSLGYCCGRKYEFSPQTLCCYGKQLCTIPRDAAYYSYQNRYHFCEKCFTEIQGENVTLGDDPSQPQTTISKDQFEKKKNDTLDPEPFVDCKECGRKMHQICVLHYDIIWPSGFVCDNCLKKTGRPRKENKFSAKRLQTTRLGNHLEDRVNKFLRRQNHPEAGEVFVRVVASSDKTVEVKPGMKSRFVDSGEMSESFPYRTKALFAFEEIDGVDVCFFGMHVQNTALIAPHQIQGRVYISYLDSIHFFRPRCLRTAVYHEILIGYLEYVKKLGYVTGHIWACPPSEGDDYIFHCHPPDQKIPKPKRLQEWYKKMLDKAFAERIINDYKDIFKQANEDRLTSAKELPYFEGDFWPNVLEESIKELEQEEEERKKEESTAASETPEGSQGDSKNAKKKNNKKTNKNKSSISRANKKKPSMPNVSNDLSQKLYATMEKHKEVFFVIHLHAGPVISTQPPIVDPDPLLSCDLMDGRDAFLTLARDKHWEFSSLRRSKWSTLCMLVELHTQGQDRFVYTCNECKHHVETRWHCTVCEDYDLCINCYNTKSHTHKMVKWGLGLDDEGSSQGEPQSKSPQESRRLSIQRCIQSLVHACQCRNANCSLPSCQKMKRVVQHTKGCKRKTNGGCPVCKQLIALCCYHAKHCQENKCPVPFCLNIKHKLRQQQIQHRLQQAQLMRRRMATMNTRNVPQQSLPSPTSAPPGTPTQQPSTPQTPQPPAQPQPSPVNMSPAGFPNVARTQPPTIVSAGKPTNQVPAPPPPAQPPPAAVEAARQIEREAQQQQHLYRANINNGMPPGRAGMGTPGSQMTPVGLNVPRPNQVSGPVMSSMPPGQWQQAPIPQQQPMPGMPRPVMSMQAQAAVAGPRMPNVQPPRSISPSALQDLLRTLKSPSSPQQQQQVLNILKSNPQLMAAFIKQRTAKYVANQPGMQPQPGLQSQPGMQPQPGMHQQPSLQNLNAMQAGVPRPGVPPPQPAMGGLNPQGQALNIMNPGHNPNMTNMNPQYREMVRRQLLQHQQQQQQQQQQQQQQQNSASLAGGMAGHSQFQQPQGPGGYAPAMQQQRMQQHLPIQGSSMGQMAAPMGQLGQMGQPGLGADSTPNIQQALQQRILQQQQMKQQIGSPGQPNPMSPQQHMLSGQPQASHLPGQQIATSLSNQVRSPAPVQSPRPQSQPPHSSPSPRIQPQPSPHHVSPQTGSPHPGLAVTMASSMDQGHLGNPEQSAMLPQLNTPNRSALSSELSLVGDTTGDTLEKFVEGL

For `O=C1[C@H](Cc2ccc(O)cc2)N2C(=O)CCN(C(=O)NCc3ccccc3)[C@H]2CN1Cc1cccc2ccccc12` [ICG-001, reference compound], the “survivin expression level in survivin-reporter system” value with Human survivin promoter is reported as “significantly decreased in a dose dependent manner”. The “luciferase activity (Wnt/β-catenin activity)” value with Wnt/β-catenin pathway (Hek293 TCF/LEF luciferase) is reported as “luciferase activity was decreased”. In addition, the CBP/γ-catenin interaction result in [1] is reported as “inhibits CBP/γ-catenin interaction”. The p300/γ-catenin interaction result in assay [2] is reported as “promotes p300/γ-catenin interaction”.

Regarding `CC(=O)c1ccc(NN=C(C(N)=O)C2=NC(C)(C)Cc3ccccc32)cc1` [IQ-1], the “mESC pluripotency (previously reported)” value with R1 mESCs [3] is on record as “maintain long term mESC pluripotency”.

For `COc1cccc(CNC(=O)N2C3CN(Cc4cccc(Cl)c4N(C)C)C(=O)[C@H](Cc4ccc(O)cc4)N3C(=O)CN2C)c1OC` (some centres unmarked) [YH249], the hESC pluripotency result in assay [4] was “maintain pluripotency”. In addition, the IC50 with Human survivin promoter (Homo sapiens, Survivin-Hek-293, 24 hours, read-out: survivin/luciferase reporter: did not inhibit up to) is more than 20 µM. Further, the IC50 with Wnt/β-catenin pathway (Homo sapiens, HEK293, STF1.1 Hek-293, 1 hour pre-incubation, 10 mM LiCl 24 hours) is less than 0.1 µM. Also, in the assay with mouse bone marrow cells (setting [6]), the “CELL#/plate” value is 5.2 × 10^5 and the “CFC#/plate” value is listed as 27. Moreover, the “cell number in each plate vs DMSO” value with mouse bone marrow cells (4 hours treatment, cells recovered from plate) is recorded as “higher cell number in each plate”. Moreover, the mESC pluripotency entry with R1 mESCs [5] is “maintain pluripotency”. Besides, at p300 (C2Cl2 lysates, 4 h at 4° C., streptavidin agarose beads), the “binding to p300 (affinity precipitation, p300 immunoblot)” value is “directly binding to p300”. The “competition of the band precipitated by Bio-249” value on p300 (free competitor) is given as “strongly competed out”. In the assay with bone marrow cells (DMSO 9%), this compound returned a lineage negative cell of 17%. The same compound had an LSK cells in the assay with bone marrow cells (DMSO 52%) of 60%. The LSKCD34negt cell numbers with bone marrow cells (from every 10,000 analyzed cells, DMSO 437) came to 663.
